This experiment concerns the target T1, human mAChR M4 (Homo sapiens, UniProt P08173).
T1 construct: expressed in transfected cells; host or cells: CHO-K1 (ATCC), stably co-expressing chimeric G protein Gqi5
T1 sequence (P08173 1-479): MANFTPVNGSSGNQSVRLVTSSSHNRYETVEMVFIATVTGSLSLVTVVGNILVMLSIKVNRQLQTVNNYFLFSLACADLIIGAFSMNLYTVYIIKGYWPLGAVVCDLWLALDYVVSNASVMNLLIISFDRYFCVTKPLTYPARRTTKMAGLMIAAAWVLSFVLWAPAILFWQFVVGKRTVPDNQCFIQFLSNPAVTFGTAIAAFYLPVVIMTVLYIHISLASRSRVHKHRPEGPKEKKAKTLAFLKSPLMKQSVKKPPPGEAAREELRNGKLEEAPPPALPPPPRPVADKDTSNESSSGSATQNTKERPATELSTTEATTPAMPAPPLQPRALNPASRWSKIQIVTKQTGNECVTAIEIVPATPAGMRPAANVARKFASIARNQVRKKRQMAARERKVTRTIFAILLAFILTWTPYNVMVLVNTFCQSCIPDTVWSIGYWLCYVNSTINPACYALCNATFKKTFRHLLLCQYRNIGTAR
Kind of experiment: mAChR M4 cell-based functional assay (calcium mobilization, EC80 acetylcholine), human M4. The conditions noted are these: for IC50: M4/Gqi5/CHO-K1 cells, decrease of EC80 acetylcholine response; for Emin: human M4, % ACh maximum at 30 μM. The method, boiled down: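 CHO-K1 cells stably expressing human M4 with chimeric Gqi5; intracellular calcium rise read on FDSS as fluorescence static ratio at 1 Hz. Compounds in 10-point 1:3 dilution series; IC50 taken as concentration-dependent decrease of the EC80 acetylcholine response, four-parameter logistic fit.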
For orientation: Calcium flux is commonly read through the fluorescence of an indicator in the cells.

Molecules are shown by their SMILES.

The IC50 is the midpoint of a concentration-inhibition curve. For the compound `Fc1ccc(Cl)c(-c2ccc(NC[C@H]3C[C@@H]4CN(CC5CC6C=CC5C6)C[C@@H]4C3)nn2)c1` (stereo partly drawn) [Compound 69, N-[[(3aR,5s,6aS)-2-(5-bicyclo[2.2.1]hept-2-enylmethyl)-3,3a,4,5,6,6a-hexahydro-1H-cyclopenta[c]pyrrol-5-yl]methyl]-6-(2-chloro-5-fluoro-phenyl)pyridazin-3-amine], for the setting “Table 9”, the IC50 came out at 35.9 nM and the Emin is 2.74%.

On to `Fc1ccc(Cl)c(-c2ccc(N[C@H]3C[C@@H]4CN(CC5CCOCC5)C[C@@H]4C3)nn2)c1` [Compound 32, (3aR,5s,6aS)-N-[6-(2-chloro-5-fluoro-phenyl)pyridazin-3-yl]-2-(tetrahydropyran-4-ylmethyl)-3,3a,4,5,6,6a-hexahydro-1H-cyclopenta[c]pyrrol-5-amine], for which, where the note is “Table 9”, the IC50 came out at 0.7 nM and the Emin amounted to 4.92%.

Take `CCC(C)CN1C[C@H]2C[C@H](Nc3ccc(-c4cc(F)ccc4Cl)nn3)C[C@H]2C1` (stereo partly drawn) [Compound 29, (3aR,5s,6aS)-N-[6-(2-chloro-5-fluoro-phenyl)pyridazin-3-yl]-2-(2-methylbutyl)-3,3a,4,5,6,6a-hexahydro-1H-cyclopenta[c]pyrrol-5-amine]: under “Table 9”, the IC50 amounted to 2.6 nM and the Emin is given as 7.8%.

For the compound `Fc1ccc(Cl)c(-c2ccc(N[C@H]3C[C@@H]4CN(Cc5cnc6ccccc6c5)C[C@@H]4C3)nn2)c1` [Compound 164, (3aR,5s,6aS)-N-[6-(2-chloro-5-fluoro-phenyl)pyridazin-3-yl]-2-(3-quinolylmethyl)-3,3a,4,5,6,6a-hexahydro-1H-cyclopenta[c]pyrrol-5-amine], under “Table 10”, the “Human M4 Emin” value is 3% and the IC50 stood at 65 nM.

Consider `CCC(C)CN1C[C@H]2C[C@H](Nc3ccc(-c4c(C)cnn4C)nn3)C[C@H]2C1` (stereo partly drawn) [Compound 18, (3aR,5s,6aS)-N-[6-(2,4-dimethylpyrazol-3-yl)pyridazin-3-yl]-2-(2-methylbutyl)-3,3a,4,5,6,6a-hexahydro-1H-cyclopenta[c]pyrrol-5-amine], for which, for the setting “Table 9”, the IC50 was 90.2 nM and the Emin was determined as 2.90%.

On to `c1cc2c(cc1-c1ccc(N[C@H]3C[C@@H]4CN(CC5CCOCC5)C[C@@H]4C3)nn1)OCO2` [Compound 182, (3aR,5s,6aS)-N-[6-(1,3-benzodioxol-5-yl)pyridazin-3-yl]-2-(tetrahydropyran-4-ylmethyl)-3,3a,4,5,6,6a-hexahydro-1H-cyclopenta[c]pyrrol-5-amine], for which, where the note is “Table 10”, the “Human M4 Emin” value was 4% and the IC50 is 1.87 nM.

For the compound `Cc1nn(C)cc1-c1ccc(O[C@@H]2C[C@@H]3CN(CC4CCOCC4)C[C@@H]3C2)nn1` [Compound 50, (3aR,5r,6aS)-5-[6-(1,3-dimethylpyrazol-4-yl)pyridazin-3-yl]oxy-2-(tetrahydropyran-4-ylmethyl)-3,3a,4,5,6,6a-hexahydro-1H-cyclopenta[c]pyrrole], where the note is “Table 9”, the IC50 amounted to 6030 nM and the Emin was determined as 15.6%.

`Cc1cnn(C)c1-c1ccc(NC(=O)C2CC3CN(CC(C)C(C)(C)C)CC3C2)nn1` (stereo not drawn) [Compound 76, N-[6-(2,4-dimethylpyrazol-3-yl)pyridazin-3-yl]-2-(2,3,3-trimethylbutyl)-3,3a,4,5,6,6a-hexahydro-1H-cyclopenta[c]pyrrole-5-carboxamide]: for the setting “Table 9”, the IC50 was 1040 nM and the Emin is recorded as 4.09%.

As for `Cc1nn(C)cc1-c1ccc(N[C@H]2C[C@@H]3CN(CCC(C)(C)C)C[C@@H]3C2)nn1` [Compound 3, (3aR,5s,6aS)-2-(3,3-dimethylbutyl)-N-[6-(1,3-dimethylpyrazol-4-yl)pyridazin-3-yl]-3,3a,4,5,6,6a-hexahydro-1H-cyclopenta[c]pyrrol-5-amine], where the note is “Table 9”, the half-inhibitory concentration (IC50) is 0.6 nM and the Emin stood at 4.99%.

Take `Cc1cnn(C)c1-c1ccc(OCC2C[C@@H]3CN(CC4CCOCC4)C[C@@H]3C2)nn1` (stereo partly drawn) [Compound 84, (3aR,6aS)-5-[[6-(2,4-dimethylpyrazol-3-yl)pyridazin-3-yl]oxymethyl]-2-(tetrahydropyran-4-ylmethyl)-3,3a,4,5,6,6a-hexahydro-1H-cyclopenta[c]pyrrole]: for the setting “Table 9”, the IC50 turned out to be 3090 nM and the Emin turned out to be 10.9%.

For the compound `Fc1ccc(Cl)c(-c2ccc(O[C@@H]3C[C@@H]4CN(CC5CC6C=CC5C6)C[C@@H]4C3)nn2)c1` (stereo partly drawn) [Compound 53, (3aR,5r,6aS)-2-(5-bicyclo[2.2.1]hept-2-enylmethyl)-5-[6-(2-chloro-5-fluoro-phenyl)pyridazin-3-yl]oxy-3,3a,4,5,6,6a-hexahydro-1H-cyclopenta[c]pyrrole], for the setting “Table 9”, the IC50 turned out to be 100 nM and the Emin came to 3.21%.

On to `FC(F)(F)Oc1ccc(-c2ccc(N[C@H]3C[C@@H]4CN(CC5CCOCC5)C[C@@H]4C3)nn2)cc1` [Compound 184, (3aR,5s,6aS)-2-(tetrahydropyran-4-ylmethyl)-N-[6-[4-(trifluoromethoxy)phenyl]pyridazin-3-yl]-3,3a,4,5,6,6a-hexahydro-1H-cyclopenta[c]pyrrol-5-amine], for which, under “Table 10”, the “Human M4 Emin” value worked out at 5% and the IC50 worked out at 56.7 nM.

Consider `FC1(F)CCCN(c2ccc(N[C@H]3C[C@@H]4CN(CC5CCOCC5)C[C@@H]4C3)nn2)C1` [Compound 196, (3aR,5s,6aS)-N-[6-(3,3-difluoro-1-piperidyl)pyridazin-3-yl]-2-(tetrahydropyran-4-ylmethyl)-3,3a,4,5,6,6a-hexahydro-1H-cyclopenta[c]pyrrol-5-amine], for which, where the note is “Table 10”, the “Human M4 Emin” value was determined as 4% and the half-maximal inhibitory concentration (IC50) worked out at 2.09 nM.

With `Cc1nn(C)cc1-c1ccc(N[C@H]2C[C@@H]3CN(CC4CCOCC4)C[C@@H]3C2)nn1` [Compound 5, (3aR,5s,6aS)-N-[6-(1,3-dimethylpyrazol-4-yl)pyridazin-3-yl]-2-(tetrahydropyran-4-ylmethyl)-3,3a,4,5,6,6a-hexahydro-1H-cyclopenta[c]pyrrol-5-amine], where the note is “Table 9”, the half-inhibitory concentration (IC50) was 10 nM and the Emin was 2.98%.

In the case of `Cc1cnn(C)c1-c1ccc(OCC2C[C@@H]3CN(CC4CCCCC4)C[C@@H]3C2)nn1` (stereo partly drawn) [Compound 83, (3aR,6aS)-2-(cyclohexylmethyl)-5-[[6-(2,4-dimethylpyrazol-3-yl)pyridazin-3-yl]oxymethyl]-3,3a,4,5,6,6a-hexahydro-1H-cyclopenta[c]pyrrole], under “Table 9”, the IC50 is 222 nM and the Emin is reported as 3.93%.

`Fc1ccc(Oc2ccc(N[C@H]3C[C@@H]4CN(CC5CCOCC5)C[C@@H]4C3)nn2)cc1` [Compound 225, (3aR,5s,6aS)-N-[6-(4-fluorophenoxy)pyridazin-3-yl]-2-(tetrahydropyran-4-ylmethyl)-3,3a,4,5,6,6a-hexahydro-1H-cyclopenta[c]pyrrol-5-amine]: where the note is “Table 10”, the “Human M4 Emin” value is 5% and the concentration for half-maximal inhibition (IC50) is 19.6 nM.

`Cc1cnn(C)c1-c1ccc(N[C@H]2C[C@@H]3CN(CC4CC5C=CC4C5)C[C@@H]3C2)nn1` (stereo partly drawn) [Compound 17, (3aR,5s,6aS)-2-(5-bicyclo[2.2.1]hept-2-enylmethyl)-N-[6-(2,4-dimethylpyrazol-3-yl)pyridazin-3-yl]-3,3a,4,5,6,6a-hexahydro-1H-cyclopenta[c]pyrrol-5-amine]: where the note is “Table 9”, the IC50 is 0.8 nM and the Emin is 6.3%.

In the case of `CC(=O)Nc1ccc(-c2cnc(N[C@H]3C[C@@H]4CN(CCC(C)(C)C)C[C@@H]4C3)cn2)cc1` [Compound 156, N-[4-[5-[[(3aR,5s,6aS)-2-(3,3-dimethylbutyl)-3,3a,4,5,6,6a-hexahydro-1H-cyclopenta[c]pyrrol-5-yl]amino]pyrazin-2-yl]phenyl]acetamide], under “Table 10”, the “Human M4 Emin” value is given as 5% and the half-maximal inhibitory concentration (IC50) was found to be 192 nM.

As to `Fc1ccc(Cl)c(-c2ccc(N[C@H]3C[C@@H]4CN(Cc5cccnc5)C[C@@H]4C3)nn2)c1` [Compound 161, (3aR,5s,6aS)-N-[6-(2-chloro-5-fluoro-phenyl)pyridazin-3-yl]-2-(3-pyridylmethyl)-3,3a,4,5,6,6a-hexahydro-1H-cyclopenta[c]pyrrol-5-amine], under “Table 10”, the “Human M4 Emin” value is 5% and the concentration for half-maximal inhibition (IC50) stood at 54.1 nM.

Consider `Cc1nn(C)cc1-c1ccc(O[C@@H]2C[C@@H]3CN(CC4CCCCC4)C[C@@H]3C2)nn1` [Compound 49, (3aR,5r,6aS)-2-(cyclohexylmethyl)-5-[6-(1,3-dimethylpyrazol-4-yl)pyridazin-3-yl]oxy-3,3a,4,5,6,6a-hexahydro-1H-cyclopenta[c]pyrrole], for which, for the setting “Table 9”, the IC50 stood at 272 nM and the Emin was 3.17%.

With `Cc1cnn(C)c1-c1ccc(NCCC2C[C@@H]3CN(CC45CC6CC(CC(C6)C4)C5)C[C@@H]3C2)nn1` (stereo partly drawn) [Compound 121, N-[2-[(3aR,6aS)-2-(1-adamantylmethyl)-3,3a,4,5,6,6a-hexahydro-1H-cyclopenta[c]pyrrol-5-yl]ethyl]-6-(2,4-dimethylpyrazol-3-yl)pyridazin-3-amine], under “Table 9”, the IC50 is 47 nM and the Emin worked out at 3.59%.

These data come from US12577234B2, “Antagonists of the muscarinic acetylcholine receptor M4” (Vanderbilt University, priority 2017, dated 2026).
